The values below come from patent publication US6177475A, “Methods of using integrin modulators for treatment of inflammation” (priority 1997, dated 2001).

SMILES strings stand for the structures. Like-named read-outs stand apart in the source and are kept apart here.

The subject of series [1] is WI-38 cells. Type of series: cell-based, human.
In series [2] the test system is HIV-1RF. Nature of the series: HIV-1RF replication in H9 cells (HIV antigens by solid phase immunoassay). It counts as cell-based. Particulars: Human immunodeficiency virus 1, m.o.i. 0.1, 72 h.
The test system of series [3] is H9RF cells / H9 cells (HIV-1RF). Nature of the series: HIV-induced syncytium formation, H9RF donor with H9 recipient. Type of series: cell-based. The text has this: For curve 1, the effect of Ajoene on the fusion of cultured, intact H9 cells with HIV infected H9RF cells is disclosed. For this curve, the vertical graph axis pertains to the maximum amount of syncytia formed in the absence of Ajoene (100 percent), while the points on line 1 represent percentages of such an amount of syncytia formed in the presence of varying concentrations of Ajoene (micromoles per liter).
Chronically infected and uninfected cell lines (HIV donors and targets, respectively) were maintained as suspension cultures in RPNI-1640 medium supplemented with 10% (v/v) heat-inactivated fetal calf serum, 50 micrograms/ml gentamycin and 2 mM L-glutamine. HIV donors used were (1) a cloned population of H9 cells harboring the genome of HIV-1RF (H9RF cells); and (2) a cloned population of SupT1 cells harboring the genome of HIV-1LAV-BRU (SupT1LAV-BRU cells). To assess the effect of Ajoene on syncytium formation, the donors were mixed with their respective recipients, H9 and SupT1, at a ratio of 1:2 in 96-well flat-bottomed plates (3×10^5 cells per well). Log 10 dilutions of Ajoene were then introduced into the wells, and the cells were cocultured for 16 h. Control wells received the vehicle of Ajoene. By the end of the incubation period syncytia were counted, and the values of IC50 for Ajoene were calculated by plotting relative amounts of syncytia (percent of the syncytia formed in the absence of the compound) against Ajoene concentration.

In series [4] the test system is Jurkat cells. Nature of the series: Disruption of cell clusters formed by Jurkat cells in culture. Type of series: cell-based. Particulars: Homo sapiens, 16 to 24 h. As for the experimental part: T-lymphocytic H9 and Jurkat cells were maintained as suspension cultures in RPMI-1640 medium supplemented with 10% (v/v) heat-inactivated fetal calf serum, 50 micrograms/ml gentamycin and 2 mM L-glutamine. To assess the effects of Ajoene on adhesive interactions of the cells, H9 cells or Jurkat cells were seeded in 96-well flat-bottomed plates (3×10^5cells per well) and cultured in the presence of log 10 dilutions of Ajoene (experiment) or its vehicle (control) for 16 to 24 h.
The requirement of integrins for the formation of cell-to-cell contacts in each of these systems has long been established. It is known that in platelets the relevant integrin is GP IIb/IIIa (β3). Neutrophil aggregation is underlain by interactions of β2 integrins (e.g., LFA-1 and/or Mac-1) with their surface counterstructures, while cohesion of T-cells is supported by both β2 integrins and fibronectin-binding β1 integrins (e.g., VLA-4 and VLA-5).

Series [5] relates to GP IIb/IIIa. Particulars: cited from earlier work.
For series [6], the system named is 51Cr-labeled monocytes. Nature of the series: Monocyte recruitment to inflamed joints in rat adjuvant arthritis. Type of series: in vivo. Particulars: 50 mg/kg i.v.; for Accumulation of 51Cr-labeled Monocytes (mean ± SEM): 2 h. The procedure:
Rat adjuvant arthritis is characterized by integrin-mediated migration of ^51 Cr-labeled monocytes and ^111 In-labeled neutrophils into the inflamed synovium, which attains maximum between days 14 and 21 after the immunization. This model of human rheumatoid arthritis was used to assess in vivo effects of Ajoene on integrins that are known to be modulated by Ajoene in vitro.
Adjuvant arthritis was induced in 6-8 week old inbred male Lewis rats by immunization on the lower back with 0.5 mg Mycobacterium butyricum (Difco Laboratories, Inc., Detroit, Mich.) in 0.05 ml mineral oil in two sites subcutaneously at the base of the tail. All the animals developed polyarticular arthritis between days 11 and 13 after immunization. For clinical scoring, 0-4 points were assigned per limb and tail, based on the severity of erythema, swelling, and limitation of movement (the maximal possible score was 20).
Rat blood monocytes and neutrophils for migration studies were obtained by the hydroxyethyl starch (HES) exchange transfusion technique. The total blood volume of a donor rat was exchanged using 50 ml 6% HES solution in saline (DuPont Chemical Co., Dorval, Canada). After recovery of 40-45 ml blood/HES perfusate, the red cells were allowed to sediment (1 g) and the leukocyte-rich plasma was harvested. The leukocytes were recovered by centrifugation, resuspended in calcium-magnesium-free Tyrode's solution supplemented with 10% platelet-poor plasma (TS-PPP), and centrifuged in a discontinuous 63%/74% gradient of isotonic Percoll (Pharmacia Fine Chemicals, Dorval, Canada). The top layer, containing mononuclear cells (MN), and the cells in the 63%/74% interface, containing neutrophils, were collected, washed, and resuspended in TS-PPP. To obtain purified monocytes, the osmolality of the MN suspension was increased by adding 9% NaCl, and the suspension was centrifuged in a 40%/55%/58% Percoll gradient; monocytes were harvested at 40%/55% and […] interfaces, washed, and resuspended in TS-PPP.
Thereafter, monocytes (10^7 cells/ml) were labeled with 75 microCurie/ml of Na2^51 CrO4 (Amersham, Oakville, Canada) at 37° C. for 30 min. Neutrophils (10^7 cells/ml) were labeled with 1 microCurie/ml of ^111 In oxine (Amersham) for 10 min. Both populations were washed to remove excess labeled material and checked for viability and purity. The viability of either cell population used in the experiments was in excess of 95% (as double-checked by Trypan blue exclusion and neutral red staining). The separation procedure described above ordinarily produced populations that contained no less than 90% monocytes and no less than 95% neutrophils. […]

For the molecule `C=CCSSC=CC[S+]([O-])CC=C` (stereo not shown) [Ajoene, 4,5,9-trithiadodeca-1,6,11-triene-9-oxide], in series [1], the toxicity result is recorded as “no detectable toxicity”. In addition, the IC50 was 25000 nM in series [2]; 5 to 50 nM in series [3] (Human immunodeficiency virus 1, H9, 16 h incubation, both donor/recipient systems, read-out: IC50 range for fusion and syncytium formation); ~50 nM in series [3] (Human immunodeficiency virus 1, H9RF donor, H9 recipient, 16 h, read-out: IC50 of Ajoene, syncytium formation); 45 nM in series [3] (Human immunodeficiency virus 1, H9 with H9RF cells, read-out: IC50 of syncytium formation (FIG. 1, curve 1)); ~50 nM in series [4]. The “syncytia found (FIG. 1, curve 1)” value in series [3] (50 micromoles of Ajoene per liter) is reported as “Essentially no syncytia were found”. The “inhibition of platelet aggregation by inactivation of GP IIb/IIIa” value in series [5] (Apitz-Castro et al., 1986) is reported as “inhibit platelet aggregation by inactivating allosterically the platelet integrin, GP IIb/IIIa”. For the same molecule, the “reversibility of integrin inhibition” value in series [5] is “reversible”. Besides, the “inhibition of monocyte recruitment to the talar joints” value in series [6] is ~ 50%. Besides, the “Accumulation of 51Cr-labeled Monocytes (mean ± SEM)” value in series [6] (talar joint, P < 0.006 vs control) is on record as 25,078 cpm per sample; in series [6] (tarsal joint, N.S.), 10,365 cpm per sample; in series [6] (vertebral joints, P = 0.079) it was 2,737 cpm per sample.

What is called IC50 is the concentration that gives 50% inhibition.
